Reference: patent US20240148821A1, “PHARMACEUTICAL USE OF CYCLIC PEPTIDE COMPOUND” (CHUGAI SEIYAKU KABUSHIKI KAISHA, priority 2021, published 2024)
Numbered stars: 1 amine (or outer) side, 2 acyl side, 3 side chain; on linkers, the order of the positions; unused ones are H or OH. Bridge positions count the residues as written; N and C are the ends. Square brackets hold non-standard residues; d marks the D form. Peptide text beside a SMILES is read from it. * marks the point of attachment. hPhe(3,5-F2-4-CF3) = N[C@@H](CCc1cc(F)c(C(F)(F)F)c(F)c1)C(=O)O; hPhe(3-Cl-4-CF3) = N[C@@H](CCc1ccc(C(F)(F)F)c(Cl)c1)C(=O)O; hPhe(3-F,4-CF3) = N[C@@H](CCc1ccc(C(F)(F)F)c(F)c1)C(=O)O; NEtPhe(4-CF3) = CCN[C@@H](Cc1ccc(C(F)(F)F)cc1)C(=O)O; X7 = O=C([C@@H]1C[C@H](N2CCC(F)(F)CC2)CN1[*:1])[*:2]; NMePhe(4-CF3) = CN[C@@H](Cc1ccc(C(F)(F)F)cc1)C(=O)O; 3Oxa8azabicyclo(3.2.1)octane = C1CC2COCC1N2*; NEtPhe(4-Me) = CCN[C@@H](Cc1ccc(C)cc1)C(=O)O; NMePhe(4-Cl) = CN[C@@H](Cc1ccc(Cl)cc1)C(=O)O; NMePhe(4-Me) = CN[C@@H](Cc1ccc(C)cc1)C(=O)O; NMeMet(O2) = CN[C@@H](CCS(C)(=O)=O)C(=O)O; NMedβ3hAla = C[C@H](CC(=O)[*:2])N(C)[*:1]; NMeGly(cPent) = CN[C@H](C(=O)O)C1CCCC1; NMeCha = CN[C@@H](CC1CCCCC1)C(=O)O; Hyp = O=C(O)[C@@H]1C[C@@H](O)CN1; NMeD = CN[C@@H](CC(=O)O)C(=O)O; NMeL = CN[C@@H](CC(C)C)C(=O)O; NEtAla = CCN[C@@H](C)C(=O)O; NMeV = CN[C@H](C(=O)O)C(C)C; NMeS = CN[C@@H](CO)C(=O)O; NMeA = CN[C@@H](C)C(=O)O; NMeAib = CNC(C)(C)C(=O)O; Piperidide = C1CCN(*)CC1; Ac5c = NC1(C(=O)O)CCCC1; Aze = O=C(O)[C@@H]1CCN1; Isopentyl = CC(C)CC*; Sar = CNCC(=O)O; Propyl = CCC*

Tests used:
[1] = target: protein-protein interaction between Kras and SOS1 (biotin-tagged human Kras loaded with GDP, His-tagged human SOS1) (Homo sapiens (Human), UniProt P01116, G12D); assay: Protein-protein interaction inhibition between Kras and SOS1 (KrasG12D-SOS PPI) using AlphaScreen; assay type: biochemical; conditions: AlphaScreen; biotin-tagged human Kras loaded with GDP, His-tagged human SOS1; read-out: KRAS G12D-SOS PPI IC50;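 note: kras produced in E. coli, Ni-coupled donor beads and streptavidin acceptor beads, excitation 680 nm with emission detected at 520–620 nm via singlet oxygen transfer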
[2] = test system: Human pancreatic cancer cell line AsPC-1 (G12D mutation Kras); assay: AsPC-1 cell growth inhibition (AsPC-1 CGI); assay type: cell-based; conditions: read-out: AsPC-1 cell growth inhibition, 50% growth inhibitory concentration (IC50 value); 96 hours, CellTiter-Glo, values classified in ranges
Description: Test compounds were serially dilated with dimethyl sulfoxide, and 200 nL was then dispensed to a U-bottom 96-well plate using Labcyte Echo. […] The cell suspension was dispensed to a. plate containing a test compound at 100 μL per well and incubated at 37° C. in a 5% carbon dioxide gas incubator. 96 hours later, 80 μL of CellTiter-Glo (Promega) was added to each well and fluorescence was measured.

| Structure (SMILES) | IC50 [1] | IC50 [2] |
| --- | --- | --- |
| CCCOC[C@H]1C(=O)N(C)CC(=O)N[C@@H](CCc2ccc(C(F)(F)F)c(Cl)c2)C(=O)N2CCC[C@H]2C(=O)NC2(CCCC2)C(=O)N(C)[C@@H](C2CCCC2)C(=O)N(C)[C@H](C(=O)N2CCCCC2)CC(=O)N(C)[C@@H](CC(C)C)C(=O)N[C@@H]([C@@H](C)CC)C(=O)N(C)[C@@H](C)C(=O)N2CC[C@H]2C(=O)N1C [Compound 415] ([NMeL]I[NMeA][Aze][NMeS](Propyl)[Sar][hPhe(3-Cl-4-CF3)]P[Ac5c][NMeGly(cPent)][NMeD]-Piperidide; lactam N-11) | 1.5 nM | ≤ 20 nM |
| CC[C@H](C)[C@@H]1NC(=O)[C@H](CCS(C)(=O)=O)N(C)C(=O)C[C@@H](C(=O)N2CCCCC2)N(C)C(=O)[C@H](C(C)C)N(C)C(=O)C2(CCCC2)NC(=O)[C@@H]2CCCN2C(=O)[C@H](CCc2ccc(C(F)(F)F)c(Cl)c2)NC(=O)CN(C)C(=O)[C@H](CC2CCCCC2)N(C)C(=O)[C@@H]2CCN2C(=O)[C@H](C)N(C)C1=O [Compound 419] ([NMeMet(O2)]I[NMeA][Aze][NMeCha][Sar][hPhe(3-Cl-4-CF3)]P[Ac5c][NMeV][NMeD]-Piperidide; lactam N-11) | 2.4 nM | > 500 nM |
| CC[C@H](C)[C@@H]1NC(=O)[C@H](CC(C)C)N(C)C(=O)C[C@@H](C(=O)N2C3CCC2COC3)N(C)C(=O)[C@H](C2CCCC2)N(C)C(=O)C2(CCCC2)NC(=O)[C@@H]2CCCN2C(=O)[C@H](CCc2ccc(C(F)(F)F)c(Cl)c2)NC(=O)CN(C)C(=O)[C@H](Cc2ccc(C(F)(F)F)cc2)N(C)C(=O)[C@@H]2CCN2C(=O)[C@H](C)N(C)C1=O [Compound 422] ([NMeL]I[NMeA][Aze][NMePhe(4-CF3)][Sar][hPhe(3-Cl-4-CF3)]P[Ac5c][NMeGly(cPent)][NMeD]-{3Oxa8azabicyclo(3.2.1)octane}; lactam N-11) | 0.87 nM | ≤ 20 nM |
| CCO[C@@H]1C[C@H]2C(=O)NC3(CCCC3)C(=O)N(C)[C@@H](C3CCCC3)C(=O)N(C)[C@H](C)CC(=O)N(C)[C@@H](CC(C)C)C(=O)N[C@@H]([C@@H](C)CC)C(=O)N(C)[C@@H](C)C(=O)N3CC[C@H]3C(=O)N(CC)[C@@H](Cc3ccc(C)cc3)C(=O)N(C)CC(=O)N[C@@H](CCc3cc(F)c(C(F)(F)F)c(F)c3)C(=O)N2C1 [Compound 432] (cyclo([Ac5c][NMeGly(cPent)][NMedβ3hAla][NMeL]I[NMeA][Aze][NEtPhe(4-Me)][Sar][hPhe(3,5-F2-4-CF3)][Hyp](Et))) | 4.5 nM | ≤ 20 nM |
| CC[C@H](C)[C@@H]1NC(=O)[C@H](CC(C)C)N(C)C(=O)C[C@@H](C(=O)N2CCCCC2)N(C)C(=O)[C@H](C(C)C)N(C)C(=O)C2(CCCC2)NC(=O)[C@@H]2CCCN2C(=O)[C@H](CCc2ccc(C(F)(F)F)c(Cl)c2)NC(=O)CN(C)C(=O)[C@H](CC2CCCCC2)N(C)C(=O)[C@@H]2CCN2C(=O)[C@H](C)N(CC)C1=O [Compound 443] ([NMeL]I[NEtAla][Aze][NMeCha][Sar][hPhe(3-Cl-4-CF3)]P[Ac5c][NMeV][NMeD]-Piperidide; lactam N-11) | 30 nM | > 500 nM |
| CC(C)C[C@H]1C(=O)N[C@@H]([C@@H](C)O)C(=O)N(C)[C@@H](C)C(=O)N2CC[C@H]2C(=O)N(C)[C@@H](CC2CCCCC2)C(=O)N(C)CC(=O)N[C@@H](CCc2ccc(C(F)(F)F)c(Cl)c2)C(=O)N2CCC[C@H]2C(=O)NC2(CCCC2)C(=O)N(C)[C@@H](C(C)C)C(=O)N(C)[C@H](C(=O)N2CCCCC2)CC(=O)N1C [Compound 450] ([NMeL]T[NMeA][Aze][NMeCha][Sar][hPhe(3-Cl-4-CF3)]P[Ac5c][NMeV][NMeD]-Piperidide; lactam N-11) | 6.6 nM | > 500 nM |
| CC[C@H](C)[C@@H]1NC(=O)[C@H](C)N(C)C(=O)C[C@@H](C(=O)N2CCCCC2)N(C)C(=O)[C@H](C(C)C)N(C)C(=O)C2(CCCC2)NC(=O)[C@@H]2C[C@H](N3CCC(F)(F)CC3)CN2C(=O)[C@H](CCc2ccc(C(F)(F)F)c(Cl)c2)NC(=O)CN(C)C(=O)[C@H](CC2CCCCC2)N(C)C(=O)CN(C)C(=O)CN(C)C1=O [Compound 460] ([NMeA]I[Sar][Sar][NMeCha][Sar][hPhe(3-Cl-4-CF3)][X7][Ac5c][NMeV][NMeD]-Piperidide; lactam N-11) | 1 nM | > 500 nM |
| CCO[C@@H]1C[C@H]2C(=O)NC3(CCCC3)C(=O)N(C)[C@@H](C3CCCC3)C(=O)N(C)[C@H](C)CC(=O)N(C)[C@@H](CC(C)C)C(=O)N[C@@H]([C@@H](C)CC)C(=O)N(C)[C@@H](C)C(=O)N3CC[C@H]3C(=O)N(CC)[C@@H](Cc3ccc(C(F)(F)F)cc3)C(=O)N(C)CC(=O)N[C@@H](CCc3cc(F)c(C(F)(F)F)c(F)c3)C(=O)N2C1 [Compound 466] (cyclo([Ac5c][NMeGly(cPent)][NMedβ3hAla][NMeL]I[NMeA][Aze][NEtPhe(4-CF3)][Sar][hPhe(3,5-F2-4-CF3)][Hyp](Et))) | 3.1 nM | ≤ 20 nM |
| CC[C@H](C)[C@@H]1NC(=O)[C@H](CC(C)C)N(C)C(=O)C[C@@H](C)N(C)C(=O)[C@H](CC(C)C)NC(=O)C(C)(C)N(C)C(=O)[C@H](Cc2ccccc2)NC(=O)[C@H](CCc2ccc(C(F)(F)F)c(F)c2)NC(=O)CN(C)C(=O)[C@H](Cc2ccc(Cl)cc2)N(C)C(=O)CN(C)C(=O)CN(C)C1=O [Compound 471] (cyclo(F[NMeAib]L[NMedβ3hAla][NMeL]I[Sar][Sar][NMePhe(4-Cl)][Sar][hPhe(3-F,4-CF3)])) | 58 nM | > 500 nM |
| CC[C@H](C)[C@@H]1NC(=O)[C@H](CC(C)C)N(C)C(=O)C[C@@H](C)N(C)C(=O)[C@H](C2CCCC2)N(C)C(=O)C2(CCCC2)NC(=O)[C@@H]2CCCN2C(=O)[C@H](CCc2ccc(C(F)(F)F)c(F)c2)NC(=O)CN(C)C(=O)[C@H](Cc2ccc(C)cc2)N(C)C(=O)[C@@H]2CCN2C(=O)[C@H](C)N(C)C1=O [Compound 481] (cyclo([Ac5c][NMeGly(cPent)][NMedβ3hAla][NMeL]I[NMeA][Aze][NMePhe(4-Me)][Sar][hPhe(3-F,4-CF3)]P)) | 2 nM | ≤ 20 nM |
| CC[C@H](C)[C@@H]1NC(=O)[C@H](CC(C)C)N(C)C(=O)C[C@@H](C(=O)N2CCCCC2)N(C)C(=O)[C@H](COC)N(C)C(=O)C2(CCCC2)NC(=O)[C@@H]2CCCN2C(=O)[C@H](CCc2ccc(C(F)(F)F)c(Cl)c2)NC(=O)CN(C)C(=O)[C@H](CC2CCCCC2)N(C)C(=O)[C@@H]2CCN2C(=O)[C@H](C)N(C)C1=O [Compound 484] ([NMeL]I[NMeA][Aze][NMeCha][Sar][hPhe(3-Cl-4-CF3)]P[Ac5c][NMeS](Me)[NMeD]-Piperidide; lactam N-11) | 110 nM | > 500 nM |
| CC(C)CCOC[C@@H]1NC(=O)[C@H](CC(C)C)N(C)C(=O)C[C@@H](C(=O)N2CCCCC2)N(C)C(=O)[C@H](C(C)C)N(C)C(=O)C2(CCCC2)NC(=O)[C@@H]2CCCN2C(=O)[C@H](CCc2ccc(C(F)(F)F)c(Cl)c2)NC(=O)CN(C)C(=O)[C@H](CC2CCCCC2)N(C)C(=O)[C@@H]2CCN2C(=O)[C@H](C)N(C)C1=O [Compound 485] ([NMeL]S(Isopentyl)[NMeA][Aze][NMeCha][Sar][hPhe(3-Cl-4-CF3)]P[Ac5c][NMeV][NMeD]-Piperidide; lactam N-11) | 160 nM | > 500 nM |
